The text below walks through data of patent publication US7078552B2, “Combretastatin A-1 phosphate and combretastatin B-1 phosphate prodrugs” (Arizona Board of Regents, priority 2000, dated 2006).

In data set [1] the test system is P388 lymphocytic leukemia cell line. Kind of data set: Murine P388 lymphocytic leukemia in vitro cell growth inhibition. It counts as cell-based.
The test system of a further data set is tubulin. The settings on record: at equal concentrations; cited from earlier work.
In the next data set the test system is BXPC-3. Put plainly: Human cancer cell line growth inhibition, Pancreas-a BXPC-3. It counts as cell-based. The note with it: for GI50: Homo sapiens.
Data set [2] concerns tubulin (microtubule assembly). The note with it: literature (Pettit et al, 1987, 1989); read-out: IC50 inhibiting microtubule assembly in vitro; cited from earlier work.
The next data set has as its system DU-I45. Put plainly: Human cancer cell line growth inhibition, Prostate DU-I45. The class given is cell-based. The settings on record: for GI50: Homo sapiens.
Another data set deals with NCl-H460. Put plainly: Human cancer cell line growth inhibition, Lung-NSC NCl-H460. The note with it: for GI50: Homo sapiens. The class given is cell-based.
Another data set relates to P388 leukemia. The note with it: early murine P388 leukemia in vivo experiments, compared with combretastatin A-4; cited from earlier work.
The subject of data set [3] is P388 lymphocytic leukemia cell line. The settings on record: literature (Pettit et al, 1987, 1989); cited from earlier work.
The next data set has as its system OVCAR-3. Kind of data set: Human cancer cell line growth inhibition, Ovarian OVCAR-3. The class given is cell-based. The note with it: for GI50: Homo sapiens.
A further data set concerns KM20L2. Kind of data set: Human cancer cell line growth inhibition, Colon KM20L2. The class given is cell-based. The settings on record: for GI50: Homo sapiens, KM-20L2.
Another data set deals with SF-295. Put plainly: Human cancer cell line growth inhibition, CNS SF-295. The note with it: for GI50: Homo sapiens. It counts as cell-based.
The next data set is described as follows: physchem. The settings on record: water.
The conditions of data set [4]: 1 mL distilled water at 25° C., Table I.
In data set [5] the test system is P388 and human tumor cell lines. Put plainly: Cytotoxicity versus the P388 and human tumor cell lines, comparative statements.

In brackets after ≈: the same amount, converted by molar mass. Where two headings read alike, the source gives them in different places.

One may read the IC50 as the midpoint of a concentration-inhibition curve. Take `COc1ccc(/C=C\c2cc(OC)c(OC)c(OC)c2)c(O)c1O` [Compound 1, Combretastatin A-1]: in data set [1] (P388 cell line), the “Leukemia P388 ED50” value was 0.251 µg/mL. Moreover, in the data set with tubulin, the “inhibition of colchicine binding to tubulin” value is listed as about 99%. Also, in the data set on BXPC-3, the “Pancreas-a BXPC-3 GI50” value came to 4.4 µg/mL. Besides, the IC50 in [2] is 2 µM. In addition, the “Prostate DU-I45 GI50” value in the data set on DU-I45 is 0.17 µg/mL. In addition, the “Lung-NSC NCl-H460 GI50” value in the data set with NCl-H460 turned out to be 0.74 µg/mL. Further, the “antineoplastic results in vivo” value in the data set on P388 leukemia is “more consistent antineoplastic results”. Besides, the “ED50 against murine P388 lymphocytic leukemia in vitro system” value (“ED50 … in vitro system” for short) in data set [3] is 0.99 µg/mL (≈ 2980 nM).

Take `COc1ccc(CCc2cc(OC)c(OC)c(OC)c2)c(O)c1O` [Compound 2, combretastatin B-1]: the “Leukemia P388 ED50” value in [1] was 1.7 µg/mL. In addition, in data set [2], the IC50 was 3 µM. Besides, the “ED50 … in vitro system” value in data set [3] was 1.7 µg/mL (≈ 5080 nM).

What is called GI50 is the concentration giving 50% growth inhibition. Read a high GI50 as less potent growth inhibition. Take `COc1ccc(/C=C\c2cc(OC)c(OC)c(OC)c2)cc1O` [Compound 3a, combretastatin A-4, reference compound]: in data set [1] (P388 cell line), the “Leukemia P388 ED50” value was determined as 0.0003 µg/mL. Further, the GI50 was 0.39 µg/mL (≈ 1230 nM) with BXPC-3; under 0.001 µg/mL with OVCAR-3; 0.061 µg/mL (≈ 193 nM) in the data set on KM20L2; 0.0008 µg/mL (≈ 2.53 nM) with DU-I45; 0.0006 µg/mL (≈ 1.9 nM) with NCl-H460; under 0.001 µg/mL with SF-295. In addition, in data set [2], the concentration for half-maximal inhibition (IC50) is […]. Further, the “ED50 … in vitro system” value in [3] is about 0.0009 µg/mL (≈ 2.84 nM).

A word on the solubility: it is how much of the substance goes into solution per volume. A higher solubility goes with much dissolved substance. On to `COc1cc(/C=C\c2ccc(OC)c(OP(=O)(O)O)c2OP(=O)(O)O)cc(OC)c1OC` [Compound 4, Sodium Combretastatin A-1 2′,3′-O-diphosphate], for which the “Leukemia P388 ED50” value in data set [1] (P388 cell line) is under 0.0100 µg/mL. Besides, the solubility (in “physchem” (25 °C); in “physchem”; in [4] (second part (column repeated))) was 120 mg/mL each time. The GI50 in the data set with BXPC-3 is 1.5 µg/mL; in the data set with OVCAR-3, 0.024 µg/mL; with KM20L2, 0.53 µg/mL; in the data set on DU-I45, 0.034 µg/mL; in the data set on NCl-H460, 0.038 µg/mL; in the data set with SF-295, 0.036 µg/mL.

In the case of `COc1cc(CCc2ccc(OC)c(OP(=O)(O)O)c2OP(=O)(O)O)cc(OC)c1OC` [Compound 5, Sodium Combretastatin B-1 2′,3′-O-Diphosphate], the “Leukemia P388 ED50” value in data set [1] (P388 cell line) worked out at 0.335 µg/mL. This compound gave a solubility in “physchem” (25 °C) of over 50 mg/mL. Moreover, the 50% growth inhibitory concentration (GI50) in the data set on BXPC-3 is over 10 µg/mL; in the data set with OVCAR-3 it was 2 µg/mL; in the data set on KM20L2, over 10 µg/mL; in the data set with DU-I45, 2.7 µg/mL; with NCl-H460 it was 3.3 µg/mL; in the data set on SF-295, 2.3 µg/mL. The “cytotoxicity / antineoplastic activity compared to prodrug 4” value in [5] is given as “reduced antineoplastic activity”.

Take `COc1cc(/C=C\c2ccc(OC)c(OP(=O)([O-])[O-])c2OP(=O)([O-])[O-])cc(OC)c1OC.[K+].[K+].[K+].[K+]` [Compound 11b, Potassium Combretastatin A-1 2′,3′-O-diphosphate]: the “Leukemia P388 ED50” value in [1] (P388 cell line) turned out to be 0.0170 µg/mL. In addition, the “Pancreas-a BXPC-3 GI50” value in the data set with BXPC-3 was 0.38 µg/mL. For the same compound, the solubility in data set [4] (first part) and in [4] (second part (column repeated)) was over 90 mg/mL in each case. In addition, the “Ovarian OVCAR-3 GI50” value with OVCAR-3 worked out at 0.023 µg/mL. The “Colon KM20L2 GI50” value in the data set with KM20L2 amounted to 0.30 µg/mL. The “Prostate DU-I45 GI50” value with DU-I45 came to 0.024 µg/mL. In addition, the “Lung-NSC NCl-H460 GI50” value in the data set on NCl-H460 is 0.036 µg/mL. For the same compound, the “CNS SF-295 GI50” value in the data set on SF-295 came to 0.035 µg/mL.

For “Nicotinamide Combretastatin A-1 2′,3′-O-diphosphate [Compound 11j]”, the “Leukemia P388 ED50” value in data set [1] (P388 cell line) was found to be 0.005 µg/mL. For the same compound, the “Pancreas-a BXPC-3 GI50” value in the data set with BXPC-3 came out at 0.42 µg/mL. Further, the “Ovarian OVCAR-3 GI50” value with OVCAR-3 stood at 0.054 µg/mL. Further, in the data set on KM20L2, the “Colon KM20L2 GI50” value was determined as 0.53 µg/mL. Besides, the “Prostate DU-I45 GI50” value in the data set on DU-I45 came to 0.046 µg/mL. In addition, the “Lung-NSC NCl-H460 GI50” value with NCl-H460 stood at 0.15 µg/mL. Also, the “CNS SF-295 GI50” value in the data set on SF-295 came out at 0.053 µg/mL.

Take “Papaverine Combretastatin A-1 2′,3′-O-diphosphate [Compound 11n]”: the “Leukemia P388 ED50” value in [1] (P388 cell line) was determined as 0.05 µg/mL. Also, the “Pancreas-a BXPC-3 GI50” value with BXPC-3 came out at 0.38 µg/mL. In addition, the “Ovarian OVCAR-3 GI50” value with OVCAR-3 is 0.052 µg/mL. The “Colon KM20L2 GI50” value with KM20L2 turned out to be 0.33 µg/mL. Further, the “Prostate DU-I45 GI50” value in the data set with DU-I45 was 0.054 µg/mL. In the data set on NCl-H460, the “Lung-NSC NCl-H460 GI50” value is 0.27 µg/mL. For the same compound, the “CNS SF-295 GI50” value in the data set with SF-295 turned out to be 0.063 µg/mL.

For “Piperazine Combretastatin in A-1 2′,3′-O-diphosphate [Compound 11i]”, in [1] (P388 cell line), the “Leukemia P388 ED50” value came out at 0.002 µg/mL. For the same compound, in the data set on BXPC-3, the “Pancreas-a BXPC-3 GI50” value amounted to 0.35 µg/mL. For the same compound, the “Ovarian OVCAR-3 GI50” value in the data set on OVCAR-3 is 0.046 µg/mL. The “Colon KM20L2 GI50” value in the data set on KM20L2 stood at 0.20 µg/mL. In the data set with DU-I45, the “Prostate DU-I45 GI50” value is 0.036 µg/mL. The “Lung-NSC NCl-H460 GI50” value in the data set with NCl-H460 is 0.037 µg/mL. For the same compound, in the data set on SF-295, the “CNS SF-295 GI50” value came out at 0.039 µg/mL.

Consider “Quinidine Combretastatin A-1 2′,3′-O-diphosphate [Compound 11l]”, for which, in data set [1] (P388 cell line), the “Leukemia P388 ED50” value stood at 0.004 µg/mL. Moreover, the “Pancreas-a BXPC-3 GI50” value in the data set with BXPC-3 stood at 0.55 µg/mL. Moreover, the “Ovarian OVCAR-3 GI50” value with OVCAR-3 came to 0.043 µg/mL. Also, in the data set with KM20L2, the “Colon KM20L2 GI50” value stood at 0.84 µg/mL. For the same compound, in the data set on DU-I45, the “Prostate DU-I45 GI50” value is 0.10 µg/mL. The “Lung-NSC NCl-H460 GI50” value with NCl-H460 amounted to 0.37 µg/mL. In addition, in the data set with SF-295, the “CNS SF-295 GI50” value amounted to 0.056 µg/mL.

With “Quinine Combretastatin A-1 2′,3′-O-dephosphate [Compound 11k]”, the “Leukemia P388 ED50” value in [1] (P388 cell line) stood at 0.004 µg/mL. Further, the “Pancreas-a BXPC-3 GI50” value with BXPC-3 turned out to be 0.47 µg/mL. The “Ovarian OVCAR-3 GI50” value with OVCAR-3 was 0.054 µg/mL. The “Colon KM20L2 GI50” value in the data set on KM20L2 amounted to 0.40 µg/mL. For the same compound, the “Prostate DU-I45 GI50” value with DU-I45 came to 0.050 µg/mL. Moreover, the “Lung-NSC NCl-H460 GI50” value with NCl-H460 was found to be 0.34 µg/mL. Moreover, the “CNS SF-295 GI50” value with SF-295 was 0.044 µg/mL.
